The text below walks through data of patent EP0336356A2, “Derivatives of tryptophan as CCK antagonists” (ABBOTT LABORATORIES, priority 1988, dated 1989).

Structures can show the parent of a compound that is named as a salt.

Assay [1] deals with T1, CCK receptors (Cavia porcellus, UniProt H0VZC5).
T1 construct: cortex and pancreas were removed and rinsed with ice-cold saline; from tissue; host or cells: guinea pig cerebral cortex membranes
T1 sequence (H0VZC5 1-426): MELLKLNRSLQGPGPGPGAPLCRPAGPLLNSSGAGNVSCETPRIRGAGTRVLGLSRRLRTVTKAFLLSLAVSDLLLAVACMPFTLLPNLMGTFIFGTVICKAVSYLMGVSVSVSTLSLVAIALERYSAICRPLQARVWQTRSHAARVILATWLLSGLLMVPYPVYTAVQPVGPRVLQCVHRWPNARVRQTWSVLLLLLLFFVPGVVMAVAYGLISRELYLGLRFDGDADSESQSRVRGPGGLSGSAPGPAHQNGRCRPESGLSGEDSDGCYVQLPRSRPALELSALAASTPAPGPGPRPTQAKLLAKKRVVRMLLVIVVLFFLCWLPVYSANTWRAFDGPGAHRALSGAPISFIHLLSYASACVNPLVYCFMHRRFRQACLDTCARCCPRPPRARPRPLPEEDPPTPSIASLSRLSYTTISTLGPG
The assay can be described thus: [125I]BH-CCK8 radioligand binding, guinea pig cerebral cortical membranes. Particulars: 30°C for 150 min, read-out: IC₅₀ (nM) [¹²⁵I]-BH-CCK₈ Cortex.

Assay [2] addresses T2, CCK receptors (Cavia porcellus, UniProt Q63931).
T2 construct: cortex and pancreas were removed and rinsed with ice-cold saline; from tissue; host or cells: guinea pig pancreas membranes
T2 sequence (Q63931 1-430): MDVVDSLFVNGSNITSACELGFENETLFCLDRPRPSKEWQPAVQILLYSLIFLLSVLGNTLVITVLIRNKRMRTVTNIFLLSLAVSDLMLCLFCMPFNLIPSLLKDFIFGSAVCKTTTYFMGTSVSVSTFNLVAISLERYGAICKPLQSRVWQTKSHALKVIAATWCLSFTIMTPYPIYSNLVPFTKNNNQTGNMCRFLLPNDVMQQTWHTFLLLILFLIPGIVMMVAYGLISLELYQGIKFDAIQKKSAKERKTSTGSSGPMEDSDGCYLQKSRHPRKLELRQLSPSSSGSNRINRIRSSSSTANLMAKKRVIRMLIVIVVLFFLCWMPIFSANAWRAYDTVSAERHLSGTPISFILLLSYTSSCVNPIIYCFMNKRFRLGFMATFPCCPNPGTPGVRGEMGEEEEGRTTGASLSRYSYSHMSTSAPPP
Kind of assay: Inhibition of CCK8-stimulated amylase release from guinea pig pancreatic acini. The assay is classed as cell-based. Particulars: reference concentration for CCK₈ 3x10⁻¹⁰M, 37°C, 30 min, read-out: IC₅₀ (nM) Inhibition of Amylase Release. The method, then:
This assay was performed using the modified protocol of Lin et al., J. Pharmacol Exp. Ther. 236, 729-734, 1986. Guinea pig acini were prepared by the method of Bruzzone et al. (Biochem. J. 226, 621-624, 1985) as follows. Pancreas was dissected out and connective tissues and blood vessels were removed. […] The composition of the KRH buffer was: HEPES, 12.5 mM: NaCl, 118 mM; […] CaCl₂, 1 mM; KH₂PO₄, 1.2 mM; MgSO₄, 1.2 mM; NaHCO₃, 5 mM; glucose, 10 mM, pH 7.4. The buffer was supplemented with 1% MEM vitamins, 1% MEM amino acids and 0.001% aprotinin. The tube was shaken by hand until the suspension appeared homogeneous, usually 5 to 6 min. 5 mL of the KRH, without collagenase and with 0.1% BSA, were added and the tube was centrifuged at 50 x g for 35 sec. The supernatant was discarded and 6 mL of the KRH were added to the cell pellet. […] This wash procedure was repeated once. The cell pellet from the last centrifugation step was then resuspended in 15 mL of KRH containing 0.1% BSA. The contents were filtered through a dual nylon mesh, size 275 and 75 um. The filtrate, containing the acini, were centrifuged at 50 x g for 3 min. The acini were then resuspended in 5 mL of KRH-BSA buffer for 30 min at 37°C, under 100% O₂, with a change of fresh buffer at 15 min. After the 30 min incubation time, the acini were resuspended in 100 volumes of KRH-BSA buffer, containing 3 uM phosphoramidon and 100 µM bestatin. […] The final assay volume was 500 uL. Tubes were vortexed and placed in a 37°C waterbath, under 100% O₂, for 30 min. Afterward, tubes were centrifuged at 10,000 g for 1 min. Amylase activity in the supernatant and the cell pellet were separately determined after appropriate dilutions in 0.1% Triton X-100, 10 mM NaH₂PO₄, pH 7.4 by Abbott Amylase A-gent test using the Abbott Bichromatic Analyzer 200. […]

Assay [3] has as its target T2, CCK receptors. The assay can be described thus: [125I]BH-CCK8 radioligand binding, guinea pig pancreatic membranes. Particulars: 37°C for 30 min, read-out: IC₅₀ (nM) [¹²⁵I]-BH-CCK₈ Pancreas.

`O=C(N[C@H](Cc1c[nH]c2ccccc12)C(=O)NCc1ccccc1)c1cc2ccccc2[nH]1` [Example 8, N-(2′-Indolylcarbonyl)-R-Tryptophan-benzylamide]: the figures for the IC50 at CCK receptors [1], at CCK receptors [2] and on CCK receptors [3] were more than 10000 nM, less than 10000 nM and 420 nM, respectively. On to `CCCCCN(CCCCC)C(=O)C(Cc1c[nH]c2ccccc12)NC(=O)C=Cc1cccnc1` (stereo not drawn) [Example 54, N-(3′-(3˝-Pyridyl)prop-2-enoyl)-R-Tryptophan-di-n-pentylamide], for which the IC50 at CCK receptors [2] was less than 100000 nM. As to `C[C@@H](NC(=O)C(Cc1c[nH]c2ccccc12)NC(=O)c1cc2ccccc2[nH]1)c1ccccc1` (stereo partly drawn) [Example 18, N-(2′-Indolylcarbonyl)-Tryptophan-(1′,R-phenylethyl)amide], the values for the IC50 at CCK receptors [1], on CCK receptors [2] and on CCK receptors [3] were 10000 nM, less than 30000 nM and 680 nM, respectively. Take `CCCCCN(CCCCC)C(=O)C(Cc1c[nH]c2ccc(F)cc12)NC(=O)c1cnc2ccccc2c1` (racemic) [Example 63, N-(3′-Quinolylcarbonyl)-R,S-5-fluorotryptophan-di-n-pentylamide]: the IC50 is more than 10000 nM at CCK receptors [1] and 62 nM at CCK receptors [3]. On to `CCCCCN(CCCCC)C(=O)[C@@H](Cc1c[nH]c2ccc(O)cc12)NC(=O)c1cnc2ccccc2c1` [Example 84, N^α-(3′-Quinolylcarbonyl)-R-5-hydroxytryptophan-di-n-pentylamide], for which the results for the IC50 on CCK receptors [1] and at CCK receptors [3] were less than 10000 nM and 2.6 nM, respectively.

Take `COC(=O)[C@@H](NC(=O)[C@@H](Cc1c[nH]c2ccccc12)NC(=O)c1cc2ccccc2[nH]1)c1ccccc1` [Example 25, Methyl N-(2,indolylcarbonyl)-R-Tryptophyl-S-Phenylglycinate]: the IC50 at CCK receptors [1] was 10000 nM; at CCK receptors [2], less than 10000 nM; on CCK receptors [3] it was 150 nM.

Take `CCCCCN(CCCCC)C(=O)[C@@H](Cc1c[nH]c2ccccc12)NC(=O)c1ccc2ncccc2c1` [Example 97, N-(6′-Quinolylcarbonyl)-R-Tryptophan-di-n-pentylamide]: the values for the IC50 at CCK receptors [2] and on CCK receptors [3] were less than 100000 nM and 180 nM, respectively. With `CCCCCN(CCCCC)C(=O)[C@@H](Cc1c(Sc2ccccc2[N+](=O)[O-])[nH]c2ccccc12)NC(=O)c1cnc2ccccc2c1` [Example 45, N-(3′-Quinolylcarbonyl)-2-(2′-nitrophenylsulfenyl)-R-Tryptophan-di-n-pentylamide], the IC50 on CCK receptors [1] was more than 10000 nM; on CCK receptors [3] it was 1500 nM. Consider `CCCCCN(CCCCC)C(=O)[C@@H](Cc1c[nH]c2ccccc12)NC(=O)C1=C(C)c2ccccc2C1` [Example 57, N-(2′-(3′-Methylindenyl)carbonyl)-R-Tryptophan-di-n-pentylamide], for which the IC50 is more than 10000 nM on CCK receptors [1] and 750 nM at CCK receptors [3].

On to `CCCCCN(CCCCC)C(=O)[C@@H](CC1C(=O)Nc2ccccc21)NC(=O)c1cnc2ccccc2c1` (stereo partly drawn) [Example 69, N-(3′-Quinolylcarbonyl)-R-(β-oxyindolyl)Ala-di-n-pentylamide], for which the IC50 on CCK receptors [1] stood at 4100 nM; at CCK receptors [3] it was 10 nM.

As to `COC(=O)[C@@H](NC(=O)[C@@H](Cc1c[nH]c2ccccc12)NC(=O)c1cnc2ccccc2c1)c1ccc(O)cc1` [Example 50, Methyl N-(3′-Quinolylcarbonyl)-R-Tryptophyl-S-(p-hydroxyphenyl)glycinate], the results for the IC50 at CCK receptors [1] and on CCK receptors [3] were more than 10000 nM and 1200 nM, respectively. In the case of `CCCCCN(CCCCC)C(=O)[C@@H](Cc1c[nH]c2ccccc12)NC(=O)c1cc(O)c2cccc(O)c2n1` [Example 91, N-(4′,8′-Dihydroxy-2′-quinolylcarbonyl)-R-Tryptophan-di-n-pentylamide], the IC50 at CCK receptors [3] stood at 5 nM. Turning to `CCCCCN(CCCCC)C(=O)[C@H]1Cc2c([nH]c3ccccc23)N1C(=O)c1cnc2ccccc2c1` [Example 78, 2,3-Dihydro-1-(3′-quinolylcarbonyl)-pyrrolo[2,3-b]indole-(2R)-dipentylcarboxamide], the IC50 at CCK receptors [1] is more than 10000 nM; at CCK receptors [3], 370 nM. Consider `O=C(N[C@H](Cc1c[nH]c2ccccc12)C(=O)NCc1ccccc1)c1cnc2ccccc2c1` [Example 7, N-(3′-Quinolylcarbonyl)-R-Tryptophan-benzylamide], for which, at CCK receptors [2], the IC50 was less than 30000 nM. For `CCCCCN(CCCCC)C(=O)[C@@H](Cc1c[nH]c2ccccc12)NC(=O)c1ccc2cccc(O)c2n1` [Example 90, N′(8′-Hydroxy-2′-quinolylcarbonyl)-R-Tryptophan-di-n-pentylamide], the values for the IC50 at CCK receptors [1] and on CCK receptors [3] were more than 10000 nM and 230 nM, respectively. Consider `CCCCCN(CCCCC)C(=O)C(Cc1c[nH]c2ccc(OCc3ccccc3)cc12)NC(=O)c1cnc2ccccc2c1` (racemic) [Example 53, N-(3′-Quinolylcarbonyl)-R,S-5-benzyloxytryptophan-di-n-pentylamide], for which, on CCK receptors [1], the IC50 was more than 10000 nM. With `CCCCCN(CCCCC)C(=O)C(Cc1c[nH]c2ccc(F)cc12)NC(=O)c1cc2ccccc2[nH]1` (racemic) [Example 64, N-(2′-Indolylcarbonyl)-R,S-5-fluorotryptophandi-n-pentylamide], the IC50 on CCK receptors [1] was 10000 nM; on CCK receptors [3] it was 330 nM. As to `CCCCCN(CCCCC)C(=O)[C@@H](Cc1c[nH]c2ccccc12)NC(=O)c1ccc(Cl)cc1` [Example 4, N-(p-Chlorobenzoyl)-R-Tryptophan-di-n-pentylamide], the IC50 at CCK receptors [3] worked out at 330 nM. With `O=C(NC(Cc1c[nH]c2ccccc12)C(=O)Nc1cnc2ccccc2c1)c1cnc2ccccc2c1` (stereo not drawn) [Example 46, N-(3′-Quinolylcarbonyl)-Tryptophan-N-(3′-quinolyl)amide], the IC50 on CCK receptors [2] is less than 10000 nM. For `CCCCCN(CCCCC)C(=O)[C@@H](Cc1c[nH]c2ccccc12)NC(=O)c1cnc2ccccc2c1` [Example 117, N-(3′-Quinolylcarbonyl)-R-Tryptophan-di-n-pentylamide mesylate salt], the values for the IC50 on CCK receptors [1] and on CCK receptors [3] were 13000 nM and 17 nM, respectively. In the case of `CCCCCN(CCCCC)C(=O)[C@@H](Cc1c[nH]c2ccccc12)NC(=O)c1cc2ccccc2cn1` [Example 96, N-(3′-Isoquinolylcarbonyl)-R-Tryptophan-di-n-pentylamide], the IC50 at CCK receptors [2] was less than 100000 nM; on CCK receptors [3], 630 nM. On the same counts, the results for `CCCCCN(CCCCC)C(=O)[C@@H](Cc1c[nH]c2ccccc12)NC(=O)c1cc2ccccc2[nH]1` [Example 3, N-(2′-Indolylcarbonyl)-R-Tryptophan-di-n-pentylamide] are 670 nM and 51 nM. Turning to `CCCCCN(CCCCC)C(=O)[C@@H](Cc1c[nH]c2ccccc12)NC(=O)c1cc2cc(C)ccc2[nH]1` [Example 105, N-(5′-Methyl-2′-indolylcarbonyl)-R-Tryptophan-di-n-pentylamide], the IC50 on CCK receptors [1] is more than 10000 nM; on CCK receptors [3] it was 620 nM.

For the compound `CCCCCN(CCCCC)C(=O)[C@@H](Cc1c[nH]c2ccccc12)NC(=O)c1ccc2cc(O)ccc2c1` [Example 93, N-(6′-Hydroxy-2′-naphthoyl)-R-Tryptophan-di-n-pentylamide], the IC50 at CCK receptors [2] was 100000 nM.

In the case of `CCCCCN(CCCCC)C(=O)[C@@H](Cc1c[nH]c2ccccc12)NC(=O)c1cc2cc(F)ccc2[nH]1` [Example 106, N-(5′-Fluoro-2′-indolylcarbonyl)-R-Tryptophan-di-n-pentylamide], the IC50 at CCK receptors [3] was found to be 82 nM.
